# Legend:
# Assay type in all cases: cell-based
# hERG potassium channel = hERG potassium channel (Homo sapiens (Human), UniProt Q12809); test: hERG Analysis - Method 2 (QPATCH HT, CHO-hERG cells); details: half-maximal inhibition concentration, 22±2° C.
# Experimental: The hERG potassium current was measured in a hERG-stably-expressing Chinese hamster ovary K1 (CHO) cells. The experiments were performed using an automated planar patch-clamp system QPATCH HT (Sophion Bioscience A/S). The application of pressure for forming gigaseals and whole-cell patch clamp configuration were established using the QPATCH assay software. Patch-clamp experiments were performed in voltage-clamp mode and whole-cell currents were recorded from individual cells. The following stimulation protocol was applied to investigate the effects of compounds on hERG potassium channel: The membrane potential was held at −80 mV and repetitively (every 15 s) depolarized to +20 mV for 5 s after the pulse to −50 mV for 20 ms served to define the baseline, followed by repolarizing step to −50 mV for 5 s to evaluate of the tail current amplitude. Experiments were conducted at room temperature (22±2° C.).
# Effects of compounds were determined from cumulative applications of increasing 4 concentrations and calculated as percent of blocked current. The data points were fitted with Hill equation to calculate half-maximal inhibition concentrations. The test solution includes: Extracellular solution (mM): 2 mM of CaCl2, 1 mM of MgCl2, 10 mM of HEPES, 4 mM of KCl, 145 mM of NaCl, and 10 mM of Glucose; and Intracellular solution (mM): 5.4 mM of CaCl2, 1.8 mM of MgCl2, 10 mM of HEPES, 31 mM of KOH, 10 mM of EGTA, 120 mM of KCl, and 4 mM of ATP.
# human TLR7 = human TLR7 (Homo sapiens (Human), UniProt Q9NYK1); test: Human TLR7 assay (SEAP reporter in HEK293); details: SEAP induction, overnight incubation at 37° C., 0.1% DMSO; read-out: TLR7 (pEC50) (converted)
# Sequence of human TLR7 (Q9NYK1 27-1049): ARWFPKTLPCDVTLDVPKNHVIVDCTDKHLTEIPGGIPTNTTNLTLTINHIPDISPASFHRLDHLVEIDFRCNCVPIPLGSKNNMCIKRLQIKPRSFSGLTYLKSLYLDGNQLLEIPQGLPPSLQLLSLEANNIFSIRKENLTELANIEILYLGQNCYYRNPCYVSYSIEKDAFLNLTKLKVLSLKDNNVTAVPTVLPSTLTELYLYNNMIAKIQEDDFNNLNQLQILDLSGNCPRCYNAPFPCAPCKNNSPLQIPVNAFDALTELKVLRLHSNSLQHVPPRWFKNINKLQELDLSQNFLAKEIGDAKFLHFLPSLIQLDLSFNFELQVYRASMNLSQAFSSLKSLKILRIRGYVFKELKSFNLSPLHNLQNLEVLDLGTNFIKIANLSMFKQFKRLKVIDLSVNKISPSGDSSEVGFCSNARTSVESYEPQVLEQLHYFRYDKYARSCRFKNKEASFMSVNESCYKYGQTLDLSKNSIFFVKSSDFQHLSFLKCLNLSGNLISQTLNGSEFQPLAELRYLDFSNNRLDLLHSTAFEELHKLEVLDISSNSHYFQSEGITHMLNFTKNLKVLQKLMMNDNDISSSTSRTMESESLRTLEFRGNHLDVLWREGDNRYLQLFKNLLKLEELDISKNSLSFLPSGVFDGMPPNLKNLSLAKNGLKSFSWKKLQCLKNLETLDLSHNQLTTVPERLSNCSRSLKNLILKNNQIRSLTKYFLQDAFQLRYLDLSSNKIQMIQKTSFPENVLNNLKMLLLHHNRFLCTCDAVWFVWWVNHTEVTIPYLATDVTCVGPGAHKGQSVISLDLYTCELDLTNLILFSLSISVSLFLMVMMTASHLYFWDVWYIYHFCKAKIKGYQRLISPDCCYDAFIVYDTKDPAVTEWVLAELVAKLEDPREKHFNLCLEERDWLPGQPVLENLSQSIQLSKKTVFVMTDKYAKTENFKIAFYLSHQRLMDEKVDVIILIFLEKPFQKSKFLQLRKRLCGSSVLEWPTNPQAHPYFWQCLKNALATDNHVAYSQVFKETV
# Excerpt: Recombinant human TLR7 was stably expressed in a HEK293 cell line already stably expressing the pNiFty2-SEAP reporter plasmid; integration of the reporter gene was maintained by selection with the antibiotic zeocin. The most common variant sequence of human TLR7 (represented by the EMBL sequence AF240467) was cloned into the mammalian cell expression vector pUNO and transfected into this reporter cell-line. Transfectants with stable expression were selected using the antibiotic blasticidin. In this reporter cell-line, expression of secreted alkaline phosphatase (SEAP) is controlled by an NFkB/ELAM-1 composite promoter comprising five NFkB sites combined with the proximal ELAM-1 promoter. TLR signaling leads to the translocation of NFkB and activation of the promoter results in expression of the SEAP gene. TLR7-specific activation was assessed by determining the level of SEAP produced following overnight incubation of the cells at 37° C. with the standard compound in the presence of 0.1% (v/v) dimethylsulfoxide (DMSO). Concentration dependent induction of SEAP production by compounds was expressed as the concentration of compound which produced half of the maximal level of SEAP induction for that compound (EC50).
# hERG ion channel = hERG ion channel (Homo sapiens (Human), UniProt Q12809); test: hERG Analysis - Method 1 (IONWORKS HT, CHO-hERG cells); details: ~21° C.
# Sequence of hERG ion channel (Q12809 whole entry): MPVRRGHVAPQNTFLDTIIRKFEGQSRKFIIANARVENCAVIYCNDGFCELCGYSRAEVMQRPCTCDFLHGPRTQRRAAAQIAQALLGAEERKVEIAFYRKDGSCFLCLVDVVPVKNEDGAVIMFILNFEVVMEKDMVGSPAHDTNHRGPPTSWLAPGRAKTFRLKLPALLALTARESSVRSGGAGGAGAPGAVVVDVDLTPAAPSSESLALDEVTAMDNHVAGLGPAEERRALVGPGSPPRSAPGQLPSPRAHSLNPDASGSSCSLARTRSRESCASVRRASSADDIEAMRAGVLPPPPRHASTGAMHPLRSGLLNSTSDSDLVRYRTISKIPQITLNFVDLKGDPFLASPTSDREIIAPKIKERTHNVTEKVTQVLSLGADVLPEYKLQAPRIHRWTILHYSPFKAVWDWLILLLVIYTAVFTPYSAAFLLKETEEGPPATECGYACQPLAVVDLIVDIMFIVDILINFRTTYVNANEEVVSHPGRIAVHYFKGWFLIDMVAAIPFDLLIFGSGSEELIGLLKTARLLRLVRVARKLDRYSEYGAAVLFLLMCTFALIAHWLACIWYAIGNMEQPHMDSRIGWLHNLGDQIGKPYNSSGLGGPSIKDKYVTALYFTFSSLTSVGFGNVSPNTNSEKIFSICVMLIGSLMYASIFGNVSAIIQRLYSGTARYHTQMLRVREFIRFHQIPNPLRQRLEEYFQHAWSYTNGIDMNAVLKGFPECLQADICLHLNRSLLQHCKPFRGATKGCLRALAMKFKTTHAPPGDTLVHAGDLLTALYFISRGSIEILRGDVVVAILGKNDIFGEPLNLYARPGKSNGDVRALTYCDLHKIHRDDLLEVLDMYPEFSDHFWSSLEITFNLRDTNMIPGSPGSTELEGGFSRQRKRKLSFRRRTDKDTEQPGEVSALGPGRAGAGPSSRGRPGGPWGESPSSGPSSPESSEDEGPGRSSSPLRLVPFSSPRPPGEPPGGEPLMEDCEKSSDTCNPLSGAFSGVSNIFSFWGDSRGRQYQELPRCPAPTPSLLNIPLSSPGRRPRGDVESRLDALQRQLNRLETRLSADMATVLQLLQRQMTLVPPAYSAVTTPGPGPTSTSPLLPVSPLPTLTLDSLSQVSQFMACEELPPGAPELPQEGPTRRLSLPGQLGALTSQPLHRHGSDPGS
# Experimental: The hERG-expressing Chinese hamster ovary K1 (CHO) cells described by (Persson, Carlsson, Duker, & Jacobson, 2005) were grown to semi-confluence at 37° C. in a humidified environment (5% CO2) in F-12 Ham medium containing L-glutamine, 10% foetal calf serum (FCS) and 0.6 mg/mL hygromycin (all available from Sigma-Aldrich). Prior to use, the monolayer was washed using a pre-warmed (37° C.) 3 mL aliquot of Versene 1:5,000 (Invitrogen) After aspiration of this solution the flask was incubated at 37° C. in an incubator with a further 2 mL of Versene 1:5,000 for a period of 6 minutes. Cells were then detached from the bottom of the flask by gentle tapping and 10 mL of Dulbecco's Phosphate-Buffered Saline containing calcium (0.9 mM) and magnesium (0.5 mM) (PBS; Invitrogen) was then added to the flask and aspirated into a 15 mL centrifuge tube prior to centrifugation (50 g, for 4 mins). The resulting supernatant was discarded and the pellet gently re-suspended in 3 mL of PBS. A 0.5 mL aliquot of cell suspension was removed and the number of viable cells (based on trypan blue exclusion) was determined in an automated reader (Cedex; Innovatis) so that the cell re-suspension volume can be adjusted with PBS to give the desired final cell concentration. It is the cell concentration at this point in the assay that is quoted when referring to this parameter. CHO-Kv1.5 cells, which were used to adjust the voltage offset on IONWORKS™ HT, were maintained and prepared for use in the same way.
# The principles and operation of this device have been described by (Schroeder, Neagle, Trezise, & Worley, 2003). Briefly, the technology is based on a 384-well plate (PATCHPLATE™) in which a recording was attempted in each well by using suction to position and hold a cell on a small hole separating two isolated fluid chambers. Once sealing had taken place, the solution on the underside of the PATCHPLATE™ was changed to one containing amphotericin B. This permeablises the patch of cell membrane covering the hole in each well and, in effect, allowed a perforated, whole-cell patch clamp recording to be made.
# A β-test IONWORKS™ HT from Essen Instrument was used. […] (˜21° C.), as follows. The reservoir in the “Buffer” position was loaded with 4 mL of PBS and that in the “Cells” position with the CHO-hERG cell suspension described above. A 96-well plate (V-bottom, Greiner Bio-one) containing the compounds to be tested (at 3-fold above their final test concentration) was placed in the “Plate 1” position and a PATCHPLATE™ was clamped into the PATCHPLATE™ station. […]
# human TLR8 = human TLR8 (Homo sapiens (Human), UniProt Q9NR97); test: Human TLR8 assay (TLR8/NF-kB/SEAPorter HEK 293 Cell Line); details: SEAP induction, overnight incubation at 37° C., 0.1% DMSO; read-out: TLR8 pEC50 (converted)
# Sequence of human TLR8 (Q9NR97 27-1041): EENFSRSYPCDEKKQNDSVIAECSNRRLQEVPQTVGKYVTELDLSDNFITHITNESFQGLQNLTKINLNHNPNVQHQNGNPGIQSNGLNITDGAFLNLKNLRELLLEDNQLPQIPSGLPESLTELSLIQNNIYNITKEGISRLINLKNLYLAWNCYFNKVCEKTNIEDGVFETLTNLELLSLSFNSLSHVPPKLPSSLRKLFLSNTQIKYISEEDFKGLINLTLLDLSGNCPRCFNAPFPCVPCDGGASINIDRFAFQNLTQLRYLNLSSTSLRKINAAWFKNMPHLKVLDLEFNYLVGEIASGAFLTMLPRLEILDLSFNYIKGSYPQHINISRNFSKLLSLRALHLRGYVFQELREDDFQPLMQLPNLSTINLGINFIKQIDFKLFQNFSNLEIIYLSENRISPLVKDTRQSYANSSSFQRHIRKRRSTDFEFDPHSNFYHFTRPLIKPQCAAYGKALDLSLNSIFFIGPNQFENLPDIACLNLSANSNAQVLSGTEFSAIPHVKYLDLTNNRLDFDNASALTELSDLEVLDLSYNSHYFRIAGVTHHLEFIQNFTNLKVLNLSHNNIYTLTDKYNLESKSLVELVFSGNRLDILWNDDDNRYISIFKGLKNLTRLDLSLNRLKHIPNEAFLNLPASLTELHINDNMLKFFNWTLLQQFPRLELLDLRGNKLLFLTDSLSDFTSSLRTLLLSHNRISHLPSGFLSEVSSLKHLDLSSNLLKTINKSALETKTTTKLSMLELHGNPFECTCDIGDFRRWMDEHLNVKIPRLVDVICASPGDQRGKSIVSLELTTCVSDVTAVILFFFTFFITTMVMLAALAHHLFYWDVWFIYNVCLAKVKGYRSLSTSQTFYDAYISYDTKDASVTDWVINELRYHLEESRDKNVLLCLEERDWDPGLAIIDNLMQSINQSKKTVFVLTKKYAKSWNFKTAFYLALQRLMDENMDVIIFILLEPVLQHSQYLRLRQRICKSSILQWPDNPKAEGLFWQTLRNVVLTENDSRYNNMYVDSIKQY
# Excerpt: TLR8/NF-kB/SEAPorter™ HEK 293 Cell Line (Imgenex Corporation) is a stably co-transfected cell line which expresses full-length human TLR8 and the secreted alkaline phosphatase (SEAP) reporter gene under the transcriptional control of an NF-κB response element. TLR8 expression in this cell line has been tested by flow cytometry. Transfectants with stable expression were selected using the antibiotic blasticidin and geneticin. TLR signaling leads to the translocation of NF-κB and activation of the promoter results in expression of the SEAP gene. TLR8-specific activation was assessed by determining the level of SEAP produced following overnight incubation of the cells at 37° C. with the standard compound in the presence of 0.1% (v/v) dimethylsulfoxide (DMSO). Concentration dependent induction of SEAP production by compounds was expressed as the concentration of compound which produced half of the maximal level of SEAP induction for that compound (EC50).
# Sequence of hERG potassium channel (Q12809 whole entry): as the sequence (Q12809 whole entry) above
Structure (SMILES),EC50 (human TLR7) [nM],EC50 (human TLR8) [nM],IC50 (hERG potassium channel) [nM],IC50 (hERG ion channel) [nM]
"CCCCNc1nc(N)nc(C)c1Cc1ccc(CN(CC)CC(=O)O)cc1OC [Example 2, 2-((4-((2-amino-4-(butylamino)-6-methylpyrimidin-5-yl)methyl)-3-methoxybenzyl) (ethyl)amino)acetic acid]",794,> 10000,> 10000,
"CCC[C@@H](CCO)Nc1nc(N)nc(C)c1Cc1ccc(CN(CC)CCC(=O)O)cc1OC [Example 5, (S)-3-((4-((2-amino-4-(1-hydroxyhexan-3-ylamino)-6-methylpyrimidin-5-yl)methyl)-3-methoxybenzyl)(ethyl)amino)propanoic acid]",50.1,> 10000,> 10000,> 33000
"CCC[C@@H](CCO)Nc1nc(N)nc(C)c1Cc1ccc(CN(CCC(=O)O)CC(F)F)cc1OC [Example 6, (S)-3-((4-((2-amino-4-(1-hydroxyhexan-3-ylamino)-6-methylpyrimidin-5-yl)methyl)-3-methoxybenzyl)(2,2-difluoroethyl)amino)propanoic acid]",251,> 10000,> 10000,> 33000
"CCC[C@@H](CCO)Nc1nc(N)nc(C)c1Cc1ccc(OCCCN(CC)CCC(=O)O)cc1OC [Example 10, (S)-3-((3-(4-((2-amino-4-(1-hydroxyhexan-3-ylamino)-6-methylpyrimidin-5-yl)methyl)-3-methoxyphenoxy)propyl)(ethyl)amino)propanoic acid]",251,> 10000,,
"CCC[C@@H](CCO)Nc1nc(N)nc(C)c1Cc1ccc(OCCCN(CC)CC(=O)O)cc1OC [Example 11, (S)-2-((3-(4-((2-amino-4-(1-hydroxyhexan-3-ylamino)-6-methylpyrimidin-5-yl)methyl)-3-methoxyphenoxy)propyl)(ethyl)amino)acetic acid]",200,> 10000,,
"CCC[C@@H](CCO)Nc1nc(N)nc(C)c1Cc1ccc(OCCCN(CC(=O)O)CC(F)F)cc1OC [Example 12, (S)-2-((3-(4-((2-amino-4-(l-hydroxyhexan-3-ylamino)-6-methylpyrimidin-5-yl)methyl)-3-methoxyphenoxy)propyl)(2,2-difluoroethyl)amino)acetic acid]",100,> 10000,,

# The next lines start with results.
EC50 (human TLR7) [nM],EC50 (human TLR8) [nM],Structure (SMILES),IC50 (hERG potassium channel) [nM],IC50 (hERG ion channel) [nM]
158,> 10000,"CCC[C@@H](CCO)Nc1nc(N)nc(C)c1Cc1ccc(CN(CC)CC(=O)O)cc1OC [Example 1, (S)-2-((4-((2-amino-4-(1-hydroxyhexan-3-ylamino)-6-methylpyrimidin-5-yl)methyl)-3-methoxybenzyl)(ethyl)amino)acetic acid]",> 10000,> 33000
251,> 10000,"CCC[C@@H](CCO)Nc1nc(N)nc(C)c1Cc1ccc(CN(CC(=O)O)C(C)=O)cc1OC [Example 7, (S)-2-(N-(4-((2-amino-4-(1-hydroxyhexan-3-ylamino)-6-methylpyrimidin-5-yl)methyl)-3-methoxybenzyl)acetamido)acetic acid]",> 10000,
126,> 10000,"CCC[C@@H](CCO)Nc1nc(N)nc(C)c1Cc1ccc(OCCCN2CCC[C@@H]2C(=O)O)cc1OC [Example 8, (R)-1-(3-(4-((2-amino-4-((S)-1-hydroxyhexan-3-ylamino)-6-methylpyrimidin-5-yl)methyl)-3-methoxyphenoxy)propyl)pyrrolidine-2-carboxylic acid]",> 10000,
200,> 10000,"CCC[C@@H](CCO)Nc1nc(N)nc(C)c1Cc1ccc(OCCCN2CCC[C@H]2C(=O)O)cc1OC [Example 9, (S)-1-(3-(4-((2-amino-4-((S)-1-hydroxyhexan-3-ylamino)-6-methylpyrimidin-5-yl)methyl)-3-methoxyphenoxy)propyl)pyrrolidine-2-carboxylic acid]",> 10000,
200,> 10000,"CCC[C@@H](CCO)Nc1nc(N)nc(C)c1Cc1ccc(CN2CCC[C@@H]2C(=O)O)cc1OC [Example 13, (R)-1-(4-((2-amino-4-((S)-1-hydroxyhexan-3-ylamino)-6-methylpyrimidin-5-yl)methyl)-3-methoxybenzyl)pyrrolidine-2-carboxylic acid]",,
2000,> 10000,"CCC[C@@H](CCO)Nc1nc(N)nc(C)c1Cc1ccc(Cn2cncc2C(=O)O)cc1OC [Example 14, (S)-1-(4-((2-amino-4-(1-hydroxyhexan-3-ylamino)-6-methylpyrimidin-5-yl)methyl)-3-methoxybenzyl)-1H-imidazole-5-carboxylic acid]",,

# Reference: US10150743B2, “Carboxylic acid compounds” (priority 2012, dated 2018)
